Test results taken from US7683061B2, “Triazine dimers for the treatment of autoimmune diseases” (ProMetic BioSciences Inc., priority 2003, dated 2010).
Where two headings read alike, the source gives them in different places.

Key:
[1] = system: TNFα-induced apoptosis, WEHI-13VAR cells; assay: TNFα induced apoptosis in WEHI-13VAR cells (MTT); assay type: cell-based, murine; conditions: Mus musculus; for inhibition at 10 µM: 1 × 10^−5M; for inhibition at 20 µM: 2 × 10^−5M; for inhibition at 40 µM: 4 × 10^−5M; for inhibition at 5 µM: 5 × 10^−6M
Description: Effect of compounds on TNFα-induced apoptosis was measured by a standard biological assay using WEHI-13VAR cells. These cells undergo apoptosis when they are incubated in the presence of TNFα and actinomycin D. 2×10^4 WEHI-13VAR cells were incubated in RPMI supplemented with 1% sodium pyruvate and 10% FBS, overnight at 37° C. for cell adherence. The cells were then cultured in the presence of 1 μg/mL of actinomycin D (to inhibit protein synthesis) and 0.04 nM TNFα with or without compounds at 37° C. After 16-24 h, 50 μL of a solution of 2 mg/mL of MTT was added to each well and the plate was then incubated for 4 h at 37° C. Only viable cells metabolize MTT to form formazan salt, which is detectable by the measurement of absorbance at 570 nm. After the incubation, the plate was inverted to remove medium and dead cells. 150 μL DMSO was added to each well to stop the reaction and solubilize the formazan salt. Optical density was read on a EL 800, universal Microplate reader (Bio-Tek). A decrease in the optical density is direct evidence of cell apoptosis induced by TNFα. Compounds were also compared to the activity of an anti-TNFα neutralizing antibody.

[2] = system: TNFα production, J774A-1 cells; assay: LPS-induced TNFα production in J774A-1 cells (ELISA); assay type: cell-based; conditions: Mus musculus, J774.A1, 24 h, read-out: IC50 (μM), inhibition of TNFα released by LPS induction
Description: Effect of compounds on TNFα production was measured by ELISA using J774-1 cells stimulated by LPS. J774-1 cells were cultured in the presence or absence of LPS and compound. Cells were cultured at 37° C. for 24 h and thereafter the supernatants were collected for the determination of the concentration of TNFα by ELISA as recommended by the manufacturer (BD Biosciences). Data was analyzed in Microsoft Excel and the concentration of compound which inhibits 50% of TNFα production (IC50) was calculated using Prism software.

[3] = molecular target: T1, TNFα / p75 TNFα receptor (CD120b) (Homo sapiens, UniProt P01375); assay: Binding ELISA: sTNF-R2 binding to plastic coated TNF-α; conditions: for inhibition at 100 µM: 10^−4 M; for inhibition at 10 µM: 10^−5 M
Description: (§1) Compounds were tested for their ability to bind to TNFα or inhibit the interaction of TNFα with its respective receptors; p55 and p75 TNFα receptor. Three binding ELISA assays were undertaken as described by Mancini et al. Biochemical Pharmacology 58, 851-859 (1999). TNFα or receptor (1 μg/mL) was coated on a 96-well plate Maxisorp, overnight at 4° C. After incubation, unbound TNFα or p55 TNFα receptor or p75 TNFα receptor was removed and the plate washed three times with PBS. The plate was then incubated with 100 μL/well of a 2% BSA solution for 1 h at 37° C. to block non specific protein binding. After incubation, the plate was washed three times with PBS. Biotinylated recombinant human TNFα p55 or p75 receptor or biotinylated recombinant human TNFα was added to the wells in the presence or absence of compounds. The plate was incubated for 1 h at 37° C. After incubation, the plate was washed three times with PBS to remove unbound labeled p55 or p75 receptor or recombinant human TNFα. 100 μL of avidin-HRP (diluted 1/2000 in PBS-0.1% BSA) was added to each well and incubated 1 h at 37° C. Bound p55 or p75 receptor or recombinant human TNFα was detected by the addition of 200 μL of 3,3′,5,5′-tetramethylbenzidine (TMB) per well for 15 min. The plate was then read at 655 nm on a EL 800 universal Microplate reader (Bio-Tek, Mississauga, Canada). Data was analyzed in Microsoft Excel and recorded as the percentage of inhibition of p55 or p75 binding to TNFα or TNFα binding to RI (p55) or RII (p75).

[4] = molecular target: T2, TNFα / p55 TNFα receptor (CD120a) (Homo sapiens, UniProt P01375); assay: Binding ELISA: TNF-α binding to plastic coated TNF-R1; conditions: for inhibition at 100 µM: 10^−4 M; for inhibition at 10 µM: 10^−5 M
Description: as §1

[5] = molecular target: T1, TNFα / p75 TNFα receptor (CD120b); assay: Binding ELISA: TNF-α binding to plastic coated TNF-R2; conditions: for inhibition at 100 µM: 10^−4 M; for inhibition at 10 µM: 10^−5 M
Description: as §1

[6] = molecular target: T3, Fc portion of human IgG (binding of protein A to human IgG); assay: Competitive protein A binding ELISA
T3 construct: fused on or other part: Horseradish peroxidase chemically conjugated to the IgG (HRP-IgG)
Description: As described above, this assay evaluates the ability of the exemplified compounds to mimic protein A. Such compounds can bind to the Fc portion of human IgG as ascertained by the inhibition of binding of protein A to human IgG. The competitive protein A binding ELISA assay was performed on a 96-well plate Maxisorp surface to enhance the binding of protein A to the bottom of the plate. The wells were coated with 100 μL of protein A (0.8 μg) and incubated overnight at 4° C. After incubation, unbound protein A was removed by three washes with phosphate buffer saline (PBS). The plate was then incubated with 100 μL/well of a 2% solution of bovine serum albumin (BSA) for 1 h at 37° C. to block non specific protein binding. After incubation, the plate was washed to times with PBS. 50 μL of compound or protein A, diluted in PBS or PBS-20% DMSO at appropriate concentration, were added to the wells followed by addition of 50 μL of peroxidase-conjugated human IgG (HRP-IgG). After 1 h incubation at 37° C., the plate was washed free times with PBS to remove unbound HRP-IgG. Bound HRP-IgG was detected by incubation with 100 μL of 2,2′-Azino-di[3-ethylbenzothiazoline sulfonate]diammonium salt crystals (ABTS) solution for 20 min in the dark at room temperature. The plate was then read at 405 nm on a EL 800, universal Microplate reader (Bio-Tek). Data was analyzed in Microsoft Excel and the concentration of compound which inhibits 50% binding of protein A (IC50) was calculated using Prism software.
Table 1 represents the IC50 of compounds tested in the competitive protein A binding ELISA assay, which consists of a side-by-side analysis in PBS and PBS-20% DMSO. DMSO was used to increase the solubility of some of the compounds.

[7] = molecular target: T2, TNFα / p55 TNFα receptor (CD120a); assay: Binding ELISA: sTNF-R1 binding to plastic coated TNF-α; conditions: for inhibition at 100 µM: 10^−4 M; for inhibition at 10 µM: 10^−5 M
Description: as §1

[8] = system: peripheral blood mononuclear leukocytes (PBML); assay: PBML DNA synthesis (thymidine); assay type: cell-based, human; conditions: for IC50: Homo sapiens, Leukocyte
From the text: (§2) PBML were obtained from the peripheral blood of healthy volunteers. Blood was submitted to gradient centrifugation with Lympholyte-poly (Cedarlane, Hornby, Canada). The layer, which contains the mononuclear leukocytes, was collected and the cells washed three times in PBS. Cells were then suspended in RPMI (Gibco, Burlington, Canada) supplemented with […] (cyclone, Logan USA). Viability was greater than 99% as determined by trypan blue exclusion.
(§3) PBML were resuspended at 2×10^6 cells mL. 100 μL of PBML (2×10^5 cells) were incubated in a 96-well microtiter plate for 48 h in the presence or absence of compound or protein A. Cells were quiescent or stimulated with concanavalin A (ConA; T-cells) or pokeweed mitogen (PWM; B-cells). After incubation, cells were treated with MTT (cytotoxicity) or pulsed with 1 μCi of [^3]-thymidine (DNA synthesis), [^3H]-uridine (RNA synthesis) or [^3]-leucine (protein synthesis) for 6 h. Plates were harvested on a Tomteck and counted on a Microbeta β-counter.

PBML cytotoxicity (MTT) = assay type: cell-based; conditions: human
From the text: as §2, §3

[9] = system: peripheral blood mononuclear leukocytes (PBML); assay: PBML RNA synthesis (uridine); assay type: cell-based, human; conditions: for IC50: Homo sapiens, Leukocyte
From the text: as §2, §3

[10] = system: peripheral blood mononuclear leukocytes (PBML); assay: PBML protein synthesis (leucine); assay type: cell-based, human; conditions: Homo sapiens, Leukocyte
From the text: as §2, §3

[11] = Table 1, PBS-20% DMSO, read-out: IC50 (μM): Assay in PBS-20% DMSO
[12] = Table 1, PBS, read-out: IC50 (μM): Assay in PBS
[13] = resting and stimulated (ConA and PWM) PBML

T2 sequence (P01375 77-233 limits assumed): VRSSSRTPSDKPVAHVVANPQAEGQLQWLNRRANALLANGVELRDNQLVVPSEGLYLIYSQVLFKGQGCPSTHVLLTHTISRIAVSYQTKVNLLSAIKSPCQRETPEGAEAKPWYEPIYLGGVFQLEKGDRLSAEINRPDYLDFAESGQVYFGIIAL
T1 sequence (P01375 77-233 limits assumed): as above

Row | IC50 [2] [µM] | inhibition at 100 µM [3] [%] | inhibition at 10 µM [3] [%] | inhibition at 100 µM [4] [%] | inhibition at 10 µM [4] [%] | inhibition at 100 µM [5] [%] | inhibition at 10 µM [5] [%] | IC50 [6, 11] [µM] | IC50 [6, 12] [µM] | inhibition at 100 µM [7] [%] | inhibition at 10 µM [7] [%] | SMILES | inhibition at 10 µM [1] [%] | inhibition at 20 µM [1] [%] | inhibition at 40 µM [1] [%] | inhibition at 5 µM [1] [%] | other results
1 | 94.4 | 5.26 | 2.06 | -69.4 | -47.4 | -105 | -86.7 | 40 | 44 | 2.19 | 4.5 | NCCc1ccc(Nc2nc(NCCNc3nc(Nc4ccccc4)nc(Nc4ccc(CCN)cc4)n3)nc(Nc3ccccc3)n2)cc1 [Compound 4] | 11.2 | 25.3 | 44 | 2.4 | –
2 | 3.4 | – | – | -8.4 | -35.7 | 3.8 | -30.4 | 39 | 23 | – | – | CN(C)CCCC(=O)Oc1ccc(CCNc2nc(NCCNc3nc(NCCc4ccc(OC(=O)CCCN(C)C)cc4)nc(Nc4ccccc4)n3)nc(Nc3ccccc3)n2)cc1 [Compound 12] | -21.1 | -28.4 | -30 | 36.9 | –
3 | 15.9 | 4.22 | 6.76 | 22.9 | 3.95 | 49.2 | 4.8 | – | – | 5.65 | 6.74 | Oc1ccc(CCNc2nc(NCCCNc3nc(NCCc4ccc(O)cc4)nc(Nc4ccccc4)n3)nc(Nc3ccccc3)n2)cc1 [Compound 25] | 22.8 | -0.7 | -17.8 | 27.5 | –
4 | 13.4 | – | – | – | – | – | – | 70 | 33 | – | – | NCCNc1nc(NCCc2ccc(Oc3nc(NCCc4ccc(O)cc4)nc(Nc4ccccc4)n3)cc2)nc(Nc2ccccc2)n1 [Compound 13] | – | – | – | – | –
5 | 28 | – | – | – | – | – | – | – | – | – | – | COC(=O)c1ccccc1Nc1nc(NCCNc2nc(N)nc(NCCc3ccc(O)cc3)n2)nc(NCCc2ccc(O)cc2)n1 [Compound 3] | 32.7 | 44.6 | 33.9 | 0.5 | –
6 | – | – | – | 32.6 | 10.4 | 36.9 | 43.3 | 0.02 | 0.2 | – | – | Nc1ccc(CCNc2nc(NCCNc3nc(NCCc4ccc(N)cc4)nc(Nc4cccc(N)c4)n3)nc(Nc3cccc(N)c3)n2)cc1 [Compound 7] | – | – | – | – | IC50 ([6]; Table 2, PBS-20% DMSO, n = 5 or 6, read-out: IC50 (n = 5 or 6) PBS-20% DMSO): 0.0217 µM; IC50 ([6]; Table 2, PBS, n = 5 or 6, read-out: IC50 (n = 5 or 6) PBS): 0.187 µM; IC50 ([8]; ConA stimulated PBML): 3.52 µM; IC50 ([8]; PWM stimulated PBML): 1.28 µM; IC50 ([8]; Resting PBML): 3.6 µM; effect on DNA synthesis (in words) [8, 13]: suppress; IC50 at 48 h (PBML cytotoxicity (MTT); ConA stimulated PBML): > 10 µM; IC50 at 48 h (PBML cytotoxicity (MTT); PWM stimulated PBML): > 10 µM; IC50 at 48 h (PBML cytotoxicity (MTT); Resting PBML): > 10 µM; IC50 ([9]; ConA stimulated PBML): 1.5 µM; IC50 ([9]; PWM stimulated PBML): 1.78 µM; IC50 ([9]; Resting PBML): 1.12 µM; effect on RNA synthesis (in words) [9, 13]: suppress; IC50 ([10]; ConA stimulated PBML): > 10 µM; IC50 ([10]; PWM stimulated PBML): > 10 µM; IC50 ([10]; Resting PBML): > 10 µM
7 | 57.1 | – | – | – | – | – | – | 12 | 53 | – | – | Nc1ccc(CCNc2nc(Nc3ccccc3)nc(Nc3ccc(CCNc4nc(NCCO)nc(Nc5ccccc5)n4)cc3)n2)cc1 [Compound 17] | – | – | – | – | –
8 | 44 | 2.68 | 4.31 | 15.4 | 4.6 | 38.5 | 21.2 | 36 | – | 1.54 | 2.95 | Cc1ccccc1Nc1nc(NCCNc2nc(NCCc3ccc(O)cc3)nc(Nc3ccccc3C)n2)nc(NCCc2ccc(O)cc2)n1 [Compound 5] | 35.1 | 38.7 | 35.4 | 28.9 | –
9 | 10.2 | – | – | – | – | – | – | 43 | 26 | – | – | Oc1ccc(CCNc2nc(NCCc3ccc(Nc4nc(Nc5ccccc5)nc(N5CCNCC5)n4)cc3)nc(Nc3ccccc3)n2)cc1 [Compound 18] | – | – | – | – | –
10 | 28.8 | – | – | – | – | – | – | 35 | – | – | – | Oc1ccc(CCNc2nc(Nc3ccccc3)nc(Nc3ccc(Nc4nc(NCCc5ccc(O)cc5)nc(Nc5ccccc5)n4)cc3)n2)cc1 [Compound 28] | – | – | – | – | –
